Test results: US10294202B2, “Pyrrolidinones as herbicides” (FMC Corporation, priority 2013, dated 2019)

Experiments:
Assay in all cases: Test D pre-/postemergence herbicide test
bluegrass = type: in vivo, Poa annua; details: for Plant response rating: Bluegrass, scale 0 to 100; for Plant response rating, Bluegrass: scale 0 to 100 (0 no effect, 100 complete control)
Procedure, shortened: (§1)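 Visual ratings from 0 (no effect) to 100 (complete control) were made against untreated controls 7 to 21 days after treatment. Application was both preemergence, on silt loam soil, and postemergence, to 1- to 4-leaf plants 2-18 cm tall; compounds were formulated in a non-phytotoxic surfactant-containing solvent.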

lambsquarters = type: in vivo, Chenopodium album; details: for Plant response rating: Lambsquarters, scale 0 to 100; for Plant response rating, Lambsquarters: scale 0 to 100 (0 no effect, 100 complete control)
Procedure, shortened: as §1

oilseed rape = type: in vivo, Brassica napus; details: for Plant response rating: Postemergence, Oilseed Rape, scale 0 to 100; for Plant response rating, Oilseed Rape: Preemergence, scale 0 to 100 (0 no effect, 100 complete control)
Procedure, shortened: as §1

Russian thistle = type: in vivo, Salsola kali; details: for Plant response rating: Postemergence, Russian Thistle, scale 0 to 100; for Plant response rating, Russian Thistle: Preemergence, scale 0 to 100 (0 no effect, 100 complete control)
Procedure, shortened: as §1

barley, spring = type: in vivo, Hordeum vulgare; details: for Plant response rating: Barley, Spring, scale 0 to 100; for Plant response rating, Barley, Spring: scale 0 to 100 (0 no effect, 100 complete control)
Procedure, shortened: as §1

mustard, wild = type: in vivo, Sinapis arvensis; details: for Plant response rating: Mustard, Wild, scale 0 to 100; for Plant response rating, Mustard, Wild: scale 0 to 100 (0 no effect, 100 complete control)
Procedure, shortened: as §1

oat, wild = type: in vivo, Avena fatua; details: for Plant response rating: Postemergence, Oat, Wild, scale 0 to 100; for Plant response rating, Oat, Wild: Preemergence, scale 0 to 100 (0 no effect, 100 complete control)
Procedure, shortened: as §1

windgrass = type: in vivo, Apera spica-venti; details: for Plant response rating: Postemergence, Windgrass, scale 0 to 100; for Plant response rating, Windgrass: Preemergence, scale 0 to 100 (0 no effect, 100 complete control)
Procedure, shortened: as §1

**Q.** For `O=C1NCC(c2ccc(Cl)c(F)c2)C1C(=O)Nc1cccc(F)c1F` (centres unmarked) [Compound 52], which Plant response rating (bluegrass; Postemergence, 16 g ai/ha) is on record?
**A.** 0

**Q.** And the Plant response rating (bluegrass; Postemergence, 31 g ai/ha)?
**A.** 0

**Q.** And the Plant response rating (bluegrass; Postemergence, 62 g ai/ha)?
**A.** 0

**Q.** What about the Plant response rating (bluegrass; Postemergence, 125 g ai/ha) of the same compound?
**A.** 0

**Q.** And the Plant response rating (bluegrass; Postemergence, 250 g ai/ha)?
**A.** 0

**Q.** What about the “Plant response rating, Bluegrass” value (bluegrass; Preemergence, 62 g ai/ha) of the same compound?
**A.** 0

**Q.** And the “Plant response rating, Bluegrass” value (bluegrass; Preemergence, 16 g ai/ha)?
**A.** 0

**Q.** What about the “Plant response rating, Bluegrass” value (bluegrass; Preemergence, 31 g ai/ha) of the same compound?
**A.** 0

**Q.** And the Plant response rating (bluegrass; Preemergence, 125 g ai/ha)?
**A.** 0

**Q.** What about the Plant response rating (bluegrass; Preemergence, 250 g ai/ha) of the same compound?
**A.** 20

**Q.** And the Plant response rating (lambsquarters; Postemergence, 16 g ai/ha)?
**A.** 0

**Q.** What about the Plant response rating (lambsquarters; Postemergence, 31 g ai/ha) of the same compound?
**A.** 0

**Q.** What about the Plant response rating (lambsquarters; Postemergence, 62 g ai/ha) of the same compound?
**A.** 0

**Q.** And the Plant response rating (lambsquarters; Postemergence, 125 g ai/ha)?
**A.** 30

**Q.** What about the Plant response rating (lambsquarters; Postemergence, 250 g ai/ha) of the same compound?
**A.** 30

**Q.** What about the “Plant response rating, Lambsquarters” value (lambsquarters; Preemergence, 62 g ai/ha) of the same compound?
**A.** 0

**Q.** What about the “Plant response rating, Lambsquarters” value (lambsquarters; Preemergence, 16 g ai/ha) of the same compound?
**A.** 0

**Q.** And the “Plant response rating, Lambsquarters” value (lambsquarters; Preemergence, 31 g ai/ha)?
**A.** 0

**Q.** And the Plant response rating (lambsquarters; Preemergence, 125 g ai/ha)?
**A.** 20

**Q.** And the Plant response rating (lambsquarters; Preemergence, 250 g ai/ha)?
**A.** 20

**Q.** What about the Plant response rating (oilseed rape; 16 g ai/ha) of the same compound?
**A.** 0

**Q.** And the Plant response rating (oilseed rape; 31 g ai/ha)?
**A.** 0

**Q.** What about the Plant response rating (oilseed rape; 62 g ai/ha) of the same compound?
**A.** 0

**Q.** What about the Plant response rating (oilseed rape; 125 g ai/ha) of the same compound?
**A.** 10

**Q.** And the Plant response rating (oilseed rape; 250 g ai/ha)?
**A.** 25

**Q.** And the “Plant response rating, Oilseed Rape” value (oilseed rape; 62 g ai/ha)?
**A.** 0

**Q.** What about the “Plant response rating, Oilseed Rape” value (oilseed rape; 125 g ai/ha) of the same compound?
**A.** 10

**Q.** What about the “Plant response rating, Oilseed Rape” value (oilseed rape; 16 g ai/ha) of the same compound?
**A.** 0

**Q.** What about the “Plant response rating, Oilseed Rape” value (oilseed rape; 31 g ai/ha) of the same compound?
**A.** 0

**Q.** And the “Plant response rating, Oilseed Rape” value (oilseed rape; 250 g ai/ha)?
**A.** 10

**Q.** What about the Plant response rating (Russian thistle; 16 g ai/ha) of the same compound?
**A.** 0

**Q.** What about the Plant response rating (Russian thistle; 31 g ai/ha) of the same compound?
**A.** 0

**Q.** What about the Plant response rating (Russian thistle; 62 g ai/ha) of the same compound?
**A.** 0

**Q.** What about the Plant response rating (Russian thistle; 125 g ai/ha) of the same compound?
**A.** 0

**Q.** And the Plant response rating (Russian thistle; 250 g ai/ha)?
**A.** 0

**Q.** And the “Plant response rating, Russian Thistle” value (Russian thistle; 62 g ai/ha)?
**A.** 0

**Q.** And the “Plant response rating, Russian Thistle” value (Russian thistle; 125 g ai/ha)?
**A.** 20

**Q.** And the “Plant response rating, Russian Thistle” value (Russian thistle; 16 g ai/ha)?
**A.** 0

**Q.** What about the “Plant response rating, Russian Thistle” value (Russian thistle; 31 g ai/ha) of the same compound?
**A.** 0

**Q.** What about the “Plant response rating, Russian Thistle” value (Russian thistle; 250 g ai/ha) of the same compound?
**A.** 30

**Q.** What about the Plant response rating (barley, spring; Postemergence, 16 g ai/ha) of the same compound?
**A.** 0

**Q.** And the Plant response rating (barley, spring; Postemergence, 31 g ai/ha)?
**A.** 0

**Q.** What about the Plant response rating (barley, spring; Postemergence, 62 g ai/ha) of the same compound?
**A.** 0

**Q.** What about the Plant response rating (barley, spring; Postemergence, 125 g ai/ha) of the same compound?
**A.** 0

**Q.** What about the Plant response rating (barley, spring; Postemergence, 250 g ai/ha) of the same compound?
**A.** 0

**Q.** What about the “Plant response rating, Barley, Spring” value (barley, spring; Preemergence, 62 g ai/ha) of the same compound?
**A.** 0

**Q.** And the “Plant response rating, Barley, Spring” value (barley, spring; Preemergence, 16 g ai/ha)?
**A.** 0

**Q.** What about the “Plant response rating, Barley, Spring” value (barley, spring; Preemergence, 31 g ai/ha) of the same compound?
**A.** 0

**Q.** And the Plant response rating (barley, spring; Preemergence, 125 g ai/ha)?
**A.** 0

**Q.** What about the Plant response rating (barley, spring; Preemergence, 250 g ai/ha) of the same compound?
**A.** 5

**Q.** And the Plant response rating (mustard, wild; Postemergence, 16 g ai/ha)?
**A.** 0

**Q.** What about the Plant response rating (mustard, wild; Postemergence, 31 g ai/ha) of the same compound?
**A.** 10

**Q.** And the Plant response rating (mustard, wild; Postemergence, 62 g ai/ha)?
**A.** 20

**Q.** And the Plant response rating (mustard, wild; Postemergence, 125 g ai/ha)?
**A.** 20

**Q.** And the Plant response rating (mustard, wild; Postemergence, 250 g ai/ha)?
**A.** 25

**Q.** And the “Plant response rating, Mustard, Wild” value (mustard, wild; Preemergence, 62 g ai/ha)?
**A.** 0

**Q.** What about the “Plant response rating, Mustard, Wild” value (mustard, wild; Preemergence, 16 g ai/ha) of the same compound?
**A.** 0

**Q.** What about the “Plant response rating, Mustard, Wild” value (mustard, wild; Preemergence, 31 g ai/ha) of the same compound?
**A.** 0

**Q.** What about the Plant response rating (mustard, wild; Preemergence, 125 g ai/ha) of the same compound?
**A.** 0

**Q.** And the Plant response rating (mustard, wild; Preemergence, 250 g ai/ha)?
**A.** 10

**Q.** What about the Plant response rating (oat, wild; 16 g ai/ha) of the same compound?
**A.** 0

**Q.** And the Plant response rating (oat, wild; 31 g ai/ha)?
**A.** 0

**Q.** And the Plant response rating (oat, wild; 62 g ai/ha)?
**A.** 0

**Q.** And the Plant response rating (oat, wild; 125 g ai/ha)?
**A.** 0

**Q.** What about the Plant response rating (oat, wild; 250 g ai/ha) of the same compound?
**A.** 0

**Q.** And the “Plant response rating, Oat, Wild” value (oat, wild; 62 g ai/ha)?
**A.** 0

**Q.** And the “Plant response rating, Oat, Wild” value (oat, wild; 125 g ai/ha)?
**A.** 0

**Q.** What about the “Plant response rating, Oat, Wild” value (oat, wild; 16 g ai/ha) of the same compound?
**A.** 0

**Q.** What about the “Plant response rating, Oat, Wild” value (oat, wild; 31 g ai/ha) of the same compound?
**A.** 0

**Q.** What about the “Plant response rating, Oat, Wild” value (oat, wild; 250 g ai/ha) of the same compound?
**A.** 0

**Q.** What about the Plant response rating (windgrass; 16 g ai/ha) of the same compound?
**A.** 0

**Q.** What about the Plant response rating (windgrass; 31 g ai/ha) of the same compound?
**A.** 0

**Q.** What about the Plant response rating (windgrass; 62 g ai/ha) of the same compound?
**A.** 0

**Q.** What about the Plant response rating (windgrass; 125 g ai/ha) of the same compound?
**A.** 0

**Q.** And the Plant response rating (windgrass; 250 g ai/ha)?
**A.** 0

**Q.** What about the “Plant response rating, Windgrass” value (windgrass; 62 g ai/ha) of the same compound?
**A.** 0

**Q.** And the “Plant response rating, Windgrass” value (windgrass; 125 g ai/ha)?
**A.** 40

**Q.** And the “Plant response rating, Windgrass” value (windgrass; 16 g ai/ha)?
**A.** 0

**Q.** What about the “Plant response rating, Windgrass” value (windgrass; 31 g ai/ha) of the same compound?
**A.** 0

**Q.** What about the “Plant response rating, Windgrass” value (windgrass; 250 g ai/ha) of the same compound?
**A.** 60
